A short description of data set [1]: FDCA solubility characterization in candidate solvents (Example 1). It is filed as physicochemical. Here is the method: Solvents were screened for the ability to dissolve FDCA. 10 ml of a candidate solvent was heated to a certain temperature and FDCA (Product No. F0710, TCI America) was added by small portions to the heated candidate solvent until the FDCA amount exceeded the solubility limit. After that, small volumes of solvent were added until the excess solids were completely dissolved. The experiment was repeated two times at each temperature and the average was taken as FDCA solubility. Five solvents were tested: (1) deionized water; (2) diglyme; (3) dioxane; (4) a 1:1 by volume mixture of diglyme with deionized water; and (5) a 4:1 by volume mixture of dioxane with deionized water. The results are depicted in FIG. 3 as a plot of FDCA Solubility (Weight %) as a function of temperature (° C.). […] However, when each of the organic solvents was combined with water, the resulting co-solvent appeared to provide a synergistic enhancement in FDCA solubilizing capability. […] Similarly, at 100° C., although FDCA solubility in water and dioxane individually was less than 1% (by weight) and less than 2% (by weight), respectively, the FDCA solubility trend line for the co-solvent system of 1:4 ratio of deionized water:dioxane, by volume, indicates 9% (by weight) FDCA solubility.

A short description of data set [2]: FDCA solubility studies in various solvent compositions, visual inspection of dissolution (Example 23). It is filed as physicochemical. Here is the method: A series of samples containing various amounts of FDCA and mixed solvent compositions were prepared in sealed pressure ampules (typically containing 2-5 g material (FDCA and solvent composition)). For example, 200 mg FDCA, 900 mg NMP, and 900 mg de-ionized water were added to an 8 mL glass vial with a stir bar inside, corresponding to a mixture containing 10 wt % FDCA. Other samples corresponding to different wt % FDCA samples in various mixed solvent compositions were prepared in a similar manner. […] The reported FDCA solubility in Table 11 represents the maximum wt % FDCA that can be dissolved in the given solvent composition using this testing method.

Consider `O=C(O)c1ccc(C(=O)O)o1` [FDCA, 2,5-furandicarboxylic acid], for which the FDCA solubility in data set [1] (in 1:1 deionized water:diglyme by volume, 100° C.) was 9 % (by weight); in data set [1] (in 1:4 deionized water:dioxane by volume, 100° C., from trend line), 9 % (by weight); in data set [1] (in diglyme, 22° C. to 100° C.) it was “less than 2 % by weight”; in data set [1] (in diglyme, 100° C.), “less than 2 % (by weight)”; in data set [1] (in dioxane, 22° C. to 100° C.), “less than 2 % by weight”; in data set [1] (in dioxane, 100° C.), “less than 2 % (by weight)”. Also, the FDCA solubility result in data set [1] (in water, 22° C. to 140° C.) is “less than 2 % by weight”; in data set [1] (in water, 100° C.) it was “less than 1 % (by weight)”; in data set [2] (Bu^tOH 50 wt. % / H2O 50 wt. %, 100 ° C.), 7.0 wt. %; in data set [2] (Bu^tOH 75 wt. % / H2O 25 wt. %, 100 ° C.), 7.5 wt. %; in data set [2] (MEK 25 wt. % / H2O 75 wt. %, 100 ° C.), 5.5 wt. %; in data set [2] (MEK 90 wt. % / H2O 10 wt. %, 100 ° C.) it was 4.0 wt. %. In addition, the FDCA solubility in data set [2] (NMP 20 wt. % / H2O 80 wt. %, 23 ° C.) was determined as 0.3 wt. %; in data set [2] (NMP 20 wt. % / H2O 80 wt. %, 100 ° C.), 4.0 wt. %; in data set [2] (NMP 20 wt. % / H2O 80 wt. %, 120 ° C.), 7.5 wt. %; in data set [2] (NMP 35 wt. % / H2O 65 wt. %, 23 ° C.), 0.5 wt. %; in data set [2] (NMP 35 wt. % / H2O 65 wt. %, 100 ° C.), 9.0 wt. %; in data set [2] (NMP 35 wt. % / H2O 65 wt. %, 120 ° C.), 13.5 wt. %. For the same compound, the FDCA solubility is listed as 14.5 wt. % in data set [2] (NMP 50 wt. % / H2O 50 wt. %, 100 ° C.); 19.5 wt. % in data set [2] (NMP 50 wt. % / H2O 50 wt. %, 120 ° C.); 4.0 wt. % in data set [2] (gamma-valerolactone 25 wt. % / H2O 75 wt. %, 100 ° C.); 7.0 wt. % in data set [2] (gamma-valerolactone 50 wt. % / H2O 50 wt. %, 100 ° C.); 6.5 wt. % in data set [2] (gamma-valerolactone 75 wt. % / H2O 25 wt. %, 100 ° C.).

For the origin of these results see patent publication US10654819B2, “Processes for the preparation of 2,5-furandicarboxylic acid and intermediates and derivatives thereof” (Stora Enso Oyj, priority 2016, dated 2020).
